Laboratory results published in ChEMBL document CHEMBL4619804, “Target-Based Identification and Optimization of 5-Indazol-5-yl Pyridones as Toll-like Receptor 7 and 8 Antagonists Using a Biochemical TLR8 Antagonist Competition Assay” (J Med Chem, 2020).

Experiments:
[1] = molecular target: T1, Toll-like receptor 8 (Homo sapiens, UniProt Q9NR97); test: biochemical
T1 sequence (Q9NR97 whole entry): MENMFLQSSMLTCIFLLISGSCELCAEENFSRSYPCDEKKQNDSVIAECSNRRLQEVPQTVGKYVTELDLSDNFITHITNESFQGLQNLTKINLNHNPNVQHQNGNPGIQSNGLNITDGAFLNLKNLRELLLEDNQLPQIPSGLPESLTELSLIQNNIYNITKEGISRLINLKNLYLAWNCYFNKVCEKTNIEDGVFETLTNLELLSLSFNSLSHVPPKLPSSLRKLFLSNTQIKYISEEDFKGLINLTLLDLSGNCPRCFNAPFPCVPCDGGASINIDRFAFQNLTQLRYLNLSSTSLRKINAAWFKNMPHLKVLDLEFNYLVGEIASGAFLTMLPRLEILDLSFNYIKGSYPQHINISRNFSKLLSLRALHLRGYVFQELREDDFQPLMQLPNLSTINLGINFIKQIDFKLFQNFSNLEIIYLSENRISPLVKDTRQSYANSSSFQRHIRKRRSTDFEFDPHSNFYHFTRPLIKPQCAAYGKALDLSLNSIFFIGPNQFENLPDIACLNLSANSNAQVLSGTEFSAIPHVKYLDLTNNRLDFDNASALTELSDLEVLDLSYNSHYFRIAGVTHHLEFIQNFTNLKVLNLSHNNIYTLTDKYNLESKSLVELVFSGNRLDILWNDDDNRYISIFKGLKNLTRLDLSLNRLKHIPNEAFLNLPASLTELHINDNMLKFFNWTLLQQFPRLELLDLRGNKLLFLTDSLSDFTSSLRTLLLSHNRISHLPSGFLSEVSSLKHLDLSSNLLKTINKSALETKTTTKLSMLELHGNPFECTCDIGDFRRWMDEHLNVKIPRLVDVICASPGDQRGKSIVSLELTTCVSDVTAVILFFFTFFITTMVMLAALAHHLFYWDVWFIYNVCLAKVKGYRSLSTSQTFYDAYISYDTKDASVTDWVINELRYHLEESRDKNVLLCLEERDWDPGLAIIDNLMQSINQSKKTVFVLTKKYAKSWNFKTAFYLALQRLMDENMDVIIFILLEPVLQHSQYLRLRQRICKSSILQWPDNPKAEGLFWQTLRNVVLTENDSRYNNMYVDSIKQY

[2] = molecular target: T2, Toll-like receptor 7 (Homo sapiens, UniProt Q9NYK1); test: Antagonist activity at TLR7 in human PBMC assessed as inhibition of DOTAP-ssRNA40 induced IFNalpha production preincubated for 30 mins followed by ssRNA40 addition measured after 20 hrs by alphaLISA; type: cell-based
T2 sequence (Q9NYK1 whole entry): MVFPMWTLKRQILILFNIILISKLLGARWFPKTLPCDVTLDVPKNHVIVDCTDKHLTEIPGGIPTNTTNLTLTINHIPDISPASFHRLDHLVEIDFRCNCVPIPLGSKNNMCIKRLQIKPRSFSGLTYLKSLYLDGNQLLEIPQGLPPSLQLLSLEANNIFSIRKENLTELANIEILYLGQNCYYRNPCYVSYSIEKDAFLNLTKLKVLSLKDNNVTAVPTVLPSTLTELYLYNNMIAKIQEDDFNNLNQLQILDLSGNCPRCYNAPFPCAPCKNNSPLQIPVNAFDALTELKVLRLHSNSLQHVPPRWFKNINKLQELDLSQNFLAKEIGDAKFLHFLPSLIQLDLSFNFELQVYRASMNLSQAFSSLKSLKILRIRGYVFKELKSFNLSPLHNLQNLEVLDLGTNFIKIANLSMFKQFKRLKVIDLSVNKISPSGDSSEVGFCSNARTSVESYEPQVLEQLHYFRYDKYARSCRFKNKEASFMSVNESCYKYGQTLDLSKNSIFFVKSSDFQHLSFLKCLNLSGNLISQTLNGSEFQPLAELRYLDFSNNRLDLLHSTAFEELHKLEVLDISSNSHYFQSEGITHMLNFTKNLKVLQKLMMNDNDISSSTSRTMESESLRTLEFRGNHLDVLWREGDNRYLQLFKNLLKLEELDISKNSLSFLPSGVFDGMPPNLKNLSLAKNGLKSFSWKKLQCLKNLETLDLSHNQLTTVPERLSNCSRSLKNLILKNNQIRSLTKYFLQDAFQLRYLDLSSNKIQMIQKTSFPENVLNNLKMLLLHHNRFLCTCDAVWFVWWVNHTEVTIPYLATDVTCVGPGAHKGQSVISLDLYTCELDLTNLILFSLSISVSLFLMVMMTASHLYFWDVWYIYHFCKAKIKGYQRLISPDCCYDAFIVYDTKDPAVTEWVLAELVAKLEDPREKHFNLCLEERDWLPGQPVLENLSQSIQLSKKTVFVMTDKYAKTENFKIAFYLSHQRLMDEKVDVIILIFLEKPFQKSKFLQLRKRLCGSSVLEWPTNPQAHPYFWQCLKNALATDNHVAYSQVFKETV

[3] = molecular target: T3, Toll-like receptor 9 (Homo sapiens, UniProt Q9NR96); test: Antagonist activity at TLR9 in human PBMC assessed as inhibition of ODN2216-induced IFNalpha production preincubated for 30 mins followed by ODN2216 addition and measured after 20 hrs by alphaLISA; type: cell-based
T3 sequence (Q9NR96 whole entry): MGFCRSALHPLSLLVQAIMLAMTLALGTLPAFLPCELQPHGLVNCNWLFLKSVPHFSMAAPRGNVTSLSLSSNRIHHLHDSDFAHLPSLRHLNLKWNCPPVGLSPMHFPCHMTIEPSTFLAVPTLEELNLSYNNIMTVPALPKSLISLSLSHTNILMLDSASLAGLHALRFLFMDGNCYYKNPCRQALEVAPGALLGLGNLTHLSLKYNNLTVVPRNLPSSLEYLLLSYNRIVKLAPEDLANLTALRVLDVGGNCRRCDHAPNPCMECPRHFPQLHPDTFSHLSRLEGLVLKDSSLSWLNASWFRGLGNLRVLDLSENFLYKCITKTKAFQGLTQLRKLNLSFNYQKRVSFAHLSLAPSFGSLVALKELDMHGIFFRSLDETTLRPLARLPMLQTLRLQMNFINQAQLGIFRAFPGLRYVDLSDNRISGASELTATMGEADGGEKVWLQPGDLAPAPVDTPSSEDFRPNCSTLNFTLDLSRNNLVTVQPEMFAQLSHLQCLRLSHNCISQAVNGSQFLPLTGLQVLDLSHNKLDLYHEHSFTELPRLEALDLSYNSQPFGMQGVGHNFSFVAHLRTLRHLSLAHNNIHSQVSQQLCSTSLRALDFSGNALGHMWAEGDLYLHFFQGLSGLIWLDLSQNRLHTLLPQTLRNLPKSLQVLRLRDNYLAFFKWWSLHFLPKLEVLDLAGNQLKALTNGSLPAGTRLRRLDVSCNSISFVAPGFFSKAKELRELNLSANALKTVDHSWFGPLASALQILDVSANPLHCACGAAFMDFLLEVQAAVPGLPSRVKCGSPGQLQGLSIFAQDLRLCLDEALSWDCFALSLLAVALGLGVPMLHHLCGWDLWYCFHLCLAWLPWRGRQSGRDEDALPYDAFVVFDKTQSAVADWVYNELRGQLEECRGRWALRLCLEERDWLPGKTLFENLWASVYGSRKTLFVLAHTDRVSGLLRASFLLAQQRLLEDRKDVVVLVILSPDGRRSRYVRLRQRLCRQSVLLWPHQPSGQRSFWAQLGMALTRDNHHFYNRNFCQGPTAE

[4] = molecular target: Toll-like receptor 4 (Homo sapiens, UniProt O00206); test: Antagonist activity at TLR4 in human PBMC assessed as inhibition of LPS-induced TNFalpha production preincubated for 30 mins followed by LPS addition and measured after 20 hrs by HTRF assay; type: cell-based
Chain of Toll-like receptor 4 (O00206 whole entry): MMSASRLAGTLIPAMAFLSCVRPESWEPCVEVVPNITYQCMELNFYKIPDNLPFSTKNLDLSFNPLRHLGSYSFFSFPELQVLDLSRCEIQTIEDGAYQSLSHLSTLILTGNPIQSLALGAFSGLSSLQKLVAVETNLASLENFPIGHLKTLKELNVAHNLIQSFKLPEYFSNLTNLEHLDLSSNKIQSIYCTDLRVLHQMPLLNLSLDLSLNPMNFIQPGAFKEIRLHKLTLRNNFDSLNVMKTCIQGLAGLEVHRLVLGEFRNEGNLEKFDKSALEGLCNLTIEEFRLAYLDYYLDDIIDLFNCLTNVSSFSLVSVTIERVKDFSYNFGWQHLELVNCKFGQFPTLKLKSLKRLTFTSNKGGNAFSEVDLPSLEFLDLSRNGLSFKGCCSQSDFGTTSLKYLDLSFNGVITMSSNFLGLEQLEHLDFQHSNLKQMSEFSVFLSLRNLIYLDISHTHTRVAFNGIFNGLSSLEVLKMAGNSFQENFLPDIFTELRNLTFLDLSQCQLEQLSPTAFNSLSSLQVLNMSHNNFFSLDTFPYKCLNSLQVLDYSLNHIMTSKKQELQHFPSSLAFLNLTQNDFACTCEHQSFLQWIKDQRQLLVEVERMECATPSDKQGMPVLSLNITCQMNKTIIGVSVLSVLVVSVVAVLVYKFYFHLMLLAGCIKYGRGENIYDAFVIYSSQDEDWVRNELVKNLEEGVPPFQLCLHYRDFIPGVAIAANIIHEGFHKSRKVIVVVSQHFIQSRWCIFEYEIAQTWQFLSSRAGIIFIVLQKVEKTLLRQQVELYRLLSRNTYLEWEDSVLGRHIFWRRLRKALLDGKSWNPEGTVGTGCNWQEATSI

[5] = molecular target: Cytochrome P450 3A4 (Homo sapiens, UniProt P08684); test: Inhibition of CYP3A4 (unknown origin); type: ADME
Chain of Cytochrome P450 3A4 (P08684 whole entry): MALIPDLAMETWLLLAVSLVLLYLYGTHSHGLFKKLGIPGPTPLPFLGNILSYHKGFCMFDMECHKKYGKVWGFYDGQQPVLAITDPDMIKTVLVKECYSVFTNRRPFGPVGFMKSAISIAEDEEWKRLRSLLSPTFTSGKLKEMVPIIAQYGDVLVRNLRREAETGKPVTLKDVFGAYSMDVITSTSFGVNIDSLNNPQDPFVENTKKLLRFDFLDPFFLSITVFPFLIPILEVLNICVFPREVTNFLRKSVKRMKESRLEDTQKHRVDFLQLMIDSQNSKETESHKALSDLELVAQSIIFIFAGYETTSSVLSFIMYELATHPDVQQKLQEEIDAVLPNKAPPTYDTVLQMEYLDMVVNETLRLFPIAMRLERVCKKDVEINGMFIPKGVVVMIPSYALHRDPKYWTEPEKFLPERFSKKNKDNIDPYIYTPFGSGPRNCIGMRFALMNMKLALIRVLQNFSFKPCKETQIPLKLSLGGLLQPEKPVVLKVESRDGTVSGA

[6] = molecular target: T1, Toll-like receptor 8; test: biochemical; remark: listed apart in the source
Description: Binding affinity to human TLR8 extracellular domain (27 to 827 residues) expressed in Drosophila S2 cells by fluorescence polarization assay

SMILES | IC50 [3] [nM] | other results
Cc1cc(-c2ccnc3[nH]ncc23)cnc1OCC12CCC(N)(CC1)CC2 | – | IC50 [1]: 68 nM
Cc1cc(-c2ccc(=O)n(C)c2)cc2cnc(N3CCN(C(C)C)CC3)nc12 | > 10000 | IC50 [2]: > 10000 nM
CC[N+]1=C(/C=C/C=C/C=C2/N(CCCCCC(=O)NC34CCC(COc5ncc(-c6ccnc7[nH]ncc67)cc5C)(CC3)CC4)c3ccc(S(=O)(=O)O)cc3C2(C)C)C(C)(C)c2cc(S(=O)(=O)O)ccc21 | – | Kd [6]: 65 nM
Cn1cc(-c2ccc3nc(N4CCN(C5CCC5)CC4)ncc3c2)ccc1=O | 2200 | –

Further lines, with some results ahead:

IC50 [3] [nM] | SMILES | other results
2000 | Cc1cc(-c2ccc(=O)n(C)c2)cc2cn(C3CCNCC3)nc12 | –
> 10000 | Cc1cc(-c2ccc(=O)n(C)c2C)cc2cn(C3CCNCC3)nc12 | IC50 [4]: > 10000 nM; IC50 [5]: > 20000 nM
7200 | Cc1cc(=O)n(C)cc1-c1cc(C)c2nn(C3CCNCC3)cc2c1 | IC50 [4]: > 4200 nM
200 | Cc1cc(-c2cc(C)c3nn(C4CCNCC4)cc3c2)cn(C)c1=O | –
